According to publication PMC6235670, “An mTOR Signaling Modulator Suppressed Heterotopic Ossification of Fibrodysplasia Ossificans Progressiva” (Stem Cell Reports, 2018):

Legend:
resFOP-iMSCs = test system: resFOP-iMSCs
From the text: (§1) Generation of ATDC5 stably expressing ACVR1. WT - or FOP-ACVR1 was inserted into doxycycline (Dox)- inducible vector KW111 (Woltjen et al., 2009), which enables us to easily produce stably expressing cell lines utilizing the piggyBac (PB) transposon system from the cabbage looper moth Trichoplusia ni (Ding et al., 2005) (KW111/WT-ACVR1 or KW111/FOP-ACVR1). KW111/WT-ACVR1 or KW111/FOP-ACVR1 and PBaseII plasmid (PB transposase expression vector) ( Matsui et al., 2014 ) were co-transfected into ATDC5 cells by FuGeneHD® (Promega) according to the manufacturer’s protocol, and the neomycin- resistant population (500 µg/mL) was selected. Further selection was performed by selecting a mCherry high positive population (< 5%) after six hours of Dox treatment, sorting it with fluorescent-activated cell sorting (FACS) using AriaII (BD) according to the manufacturer’s protocol, and designating it as ATDC5/WT-ACVR1 or ATDC5/FOP-ACVR1. […]
(§2) HTS campaign and follow-up screens. […] After 3 days incubation, Alkaline Phosphatase activity (ALP) or AlamarBlue activity was measured using Amplite™ Colorimetric Alkaline Phosphatase Assay Kit (AAT Bioquest) or alamarBlue® Cell Viability Reagent (Thermo Fisher Scientific) according to the manufacturer’s protocol, respectively. T h e absorbance at 400 nm (Abs for ALP) or Relative Fluorescent Unit of Ex560/Em590 nm (RFU for AlamarBlue) was measured on POWERSCAN4 (DS Pharma Biomedical) or EnVision® Multilabel Reader (PerkinElmer).
(§3) Inhibitory effects of the screened compounds are given as percent inhibition, which was calculated using the following equation: (1-([Abs of compound] - [Abs of Min])/([Abs of Max] - [Abs of Min]))× 100, where [Abs of Max] and [Abs of Min] are the mean Abs of DMSO control and 1 µM DMH-1, respectively. The Z’ factor, which is widely used as a measure of the assay quality of each plate, was calculated using the following equation: Z’ factor = 1 - 3 × ([SD of Max] + [SD of Min])/([Abs of Max] - [Abs of Min]) (SI Appendix, Fig. […]

FOP-iMSCs [1] = conditions: TGF-β3 10 ng/mL, 7 days, 1 nM-1 µM
From the text: as §1, §2, §3

[2] = test system: NOD/SCID mice transplanted with FOP-iMSCs
From the text: MTOR s604 […]tt […]at […]
For X- ray images, mice were anesthetized with isoflurane (5% for induction, 2-3% for maintenance, Abbvie), immobilized and X-rayed using µFX-1000 (Fujifilm) or DX-50 (Faxitron Bioptics). µCT images were scanned using X-ray CT systems (inspeXio SMX-100CT, Shimadzu) and analyzed with TRI/3D-BON software (Ratoc System Engineering) according to the manufacturer's instructions. […]
Activin-A-induced HO model transplanted with FOP-iMSCs. FOP- (right leg) and resFOP-iMSCs (left leg) (4 x 10^6 cells, respectively) were transplanted into the gastrocnemius muscle of NOD/ShiJic-scid Jcl (NOD/SCID) mice (8 weeks, male, CLEA Japan) with C3H -DoxOn-hINHBA (5 x 10^5 cells), which can continuously expose Activin-A to the transplanted iMSCs in vivo ( Hino et al., 2015) . In the Dox-induced group, 1 mg/mL Dox (Sigma-Aldrich) was administered via drinking water with 10 mg/mL sucrose (Nacalai Tesque) for two weeks after transplantation. Compounds were intraperitoneally administered once a day, five times a week. Eight weeks after transplantation, the transplanted cells were harvested , fixed with 4% paraformaldehyde for 24 h, embedded in paraffin, and sectioned and stained with HE, von Kossa, Safranin O, human specific anti-Vimentin antibody and Collagen I antibody as previously described (Hino et al., 2015; Umeda et al., 2012; […]

[3] = test system: TGF-β signaling (CAGA-Luc); test: CAGA-Luc reporter assay in FOP-iMSCs; format: cell-based, human; conditions: activin A and compounds for 3 hr
Description: FOP-iMSCs transiently transfected with BRE-Luc (A) or CAGA-Luc (B) with CMV-Renilla were stimulated with activin A and compounds for 16 hr (A) or 3 hr (B). […] One day after siRNA transfection, chondrogenic induction with activin A was initiated, and after 7 days the cells were harvested. […] FOP-iMSCs cultured with 10% FBS were treated with 100 nM rapamycin (Rapa) or TAK 165 (TAK) for 2 hr, and the cells were harvested. […] 1 μM TAK, 1 μM CP (CP-724714, another selective ERBB2 inhibitor), or 10 nM Rapa were applied in the experiments.

FOP-iMSCs [4] = test: Microarray / pathway analysis of activin A-induced chondrogenesis of FOP-iMSCs; format: cell-based, human; conditions: 100 nM, activin A, 7 days
Description: Microarray experiments. 2D chondrogenic induction was performed in FOP-iMSCs stimulated with or without 100 ng/mL Activin-A, TAK 165, CP-724714 and Lapatinib. Seven days after incubation, mRNA was extracted. RNA was reverse transcribed, biotin-labeled and hybridized to GeneChip Human Gene 1.0 ST Expression Array, which was subsequently washed and scanned according to the manufacturer’s instructions (Affymetrix). Raw CEL files were imported into GeneSpring GX 12.6.1 software (Agilent Technologies), and expression values were calculated with the RMA16 algorithm. Pathway analysis was performed by Ingenuity pathway analysis (Qiagen). […]

FC(F)(F)c1ccc(/C=C/c2nc(COc3ccc(CCCCn4ccnn4)cc3)co2)cc1 [TAK 165, mubritinib]
chondrogenesis of resFOP-iMSCs stimulated with Activin-A (GAG) (resFOP-iMSCs; Activin-A 100 ng/mL, 7 days, 1 nM-1 µM): suppressed | effect on FOP cells versus normal cells (resFOP-iMSCs; FOP-iMSCs vs resFOP-iMSCs): stronger effects on FOP cells than on normal cells | chondrogenesis of FOP-iMSCs stimulated with TGF-β3 (GAG) (FOP-iMSCs [1]): suppressed | anti-human-specific vimentin-positive cells (survival of transplanted cells) ([2]; 5 mg/kg i.p.): large number | body weight change compared with vehicle group ([2]; 5 mg/kg i.p.): No significant differences | hypertrophic chondrocytes and von Kossa- and COL1-positive bone regions ([2]; 5 mg/kg i.p.): fewer | HO derived from FOP-iMSCs (heterotopic bone volume) ([2]; 5 mg/kg i.p. once daily, five times a week, 8 weeks after transplantation): significantly suppressed | CAGA-Luc (TGF-β-responsive luciferase reporter) [3]: did not affect | transcriptome: genes involved in chondrogenesis or osteogenesis (FOP-iMSCs [4]): affected genes that are involved in chondrogenesis or osteogenesis
